Structures can show the parent of a compound that is named as a salt.
Assays:
Type in all cases: cell-based, porcine
encapsulated CP = test: VEGF secretion by encapsulated CP cultured with or without inducers; conditions: 1000 CP-containing capsules, 24 hours at 37° C.; FIG. 3B
Experimental: To determine that certain inducers can increase the secretion of CSF components by CPs that have been encapsulated, 1000 CP-containing capsules were cultured in 24-well multi-well plate with or without various inducers including LiCl at 37° C. for 24 hours. Aliquots of supernatant fluids were collected and assayed for VEGF as described in EXAMPLE 1. Aliquots of the cell cultures were also collected for DNA quantification to determine the relative number of cells in each well as described in EXAMPLE 1.

[1] = system: CP clusters containing CP cells; test: RNA-Seq of CP clusters for genes encoding CSF components after exposure to inducing agent; conditions: 12 mM LiCl, 72 hours, vs controls; FIG. 8
Experimental: In a further experiment to identify genes for which the expression levels were altered in CP cells following contact with an inducing agent as provided herein, CP clusters (5×10^3 clusters/mL) containing CP cells, obtained from 12-13 day-old piglets and cultured in vitro for 20-22 days, were incubated for 72 hours in serum-free, phenol-free RPMI medium containing 10 mM nicotinamide in the absence (controls) or presence (inducing agent-treated) of 12 mM LiCl. Cell pellets were harvested and 0.25 ml of TRI™ Reagent (Catalog # T9424, Sigma-Aldrich Corporation, St. Louis, Mo.) was added to lyse the cells. The lysate was pipetted up and down approximately 10 times and stored at −80° C. until RNA-Seq analysis. […] Corresponding human genes encoding human CSF components were identified by established orthology analysis (Groenen et al., 2012 Nature 491(7424):393-8).

[2] = system: Choroid plexus (CP) cell clusters; test: Total antioxidant capacity (TAC) of culture supernatants of CP cell clusters exposed to candidate CP inducing agents (OxiSelect TAC assay); conditions: non-encapsulated CP clusters, 72 hours; FIG. 2
Experimental: Choroid plexus (CP) cell clusters comprising CP cells (5×10^3 clusters/mL) were prepared as described above in Example 1 but without encapsulation and cultured at 37° C. in a 5% CO2 incubator for 24 or 72 hours in vitro in 24-well ultra-low (cell) attachment plates, and culture supernatants were tested for total antioxidant capacity (TAC) using the OxiSelect™ TAC assay (Cat. No. STA-360, Cell Biolabs, Inc., San Diego, Calif.) according to the manufacturer's instructions. To avoid interference in the TAC assay from medium components, cultures were incubated in serum-free, phenol-free RPMI media supplemented with 10 mM nicotinamide. A panel of candidate CP inducing agents was also tested for effects on TAC elaboration by CP cells. Control wells that received the culture medium alone or with each candidate CP inducing agent, but no CP cell clusters, were also incubated and tested for TAC.

SMILES | VEGF secretion by encapsulated CP versus culture without inducers (encapsulated CP) | expression levels of porcine genes encoding known CSF components [1] | release of total antioxidant capacity (TAC) by CP cells [2]
NCCS(=O)(=O)O [taurine, 2-aminoethanesulfonic acid] | induced VEGF secretion by encapsulated CPs |  | 
COC1=C(OC)C(=O)C(CCCCCCCCCC[P+](c2ccccc2)(c2ccccc2)c2ccccc2)=C(C)C1=O [MitoQ, 10-(6′-ubiquinoyl) decyltriphenylphosphonium salt] | induced VEGF secretion by encapsulated CPs |  | 
[Cl-].[Li+] [LiCl, lithium chloride] | induced VEGF secretion by encapsulated CP above the level secreted by encapsulated CPs cultured without inducers | expression levels increased (FIG. 8A-E) or decreased (FIG. 8F-K) | promoted the release by CP cells of elevated TAC levels
O=C([O-])[O-].[Li+].[Li+] [lithium carbonate] | induced VEGF secretion by encapsulated CP above the level secreted by encapsulated CPs cultured without inducers |  | 

Source: US20160361365A1, “TREATMENT OF CNS DISEASE WITH ENCAPSULATED INDUCIBLE CHOROID PLEXUS CELLS” (Living Cell Technologies New Zealand Limited, priority 2015, published 2016)
